# Columns and labels:
# [1] = Zeta potential before and after incubation with NE; format: physicochemical; conditions: 20 µM, mean ± s.d., n = 3
# Experimental: Submitted to Advanced Science temperature. Following the incubation, 10 µL of the solution was added to a copper mesh at 0 and 24 h. Filter paper was used to remove any extra droplets after an overnight stay. The samples were then stained for five minutes with uranyl acetate and then rinsed for one minute with water (10 µL). Finally, dried samples were observed by TEM (Talos 120C, Thermo Fisher Scientific, USA). DLS (Zetasizer Nano ZS, UK) was used to assess the solution for hydrodynamic size and zeta potential at 0 and 24 h following the incubation. Then, the nanofiber structure at 0 h and 24 h after incubation of FTP-NPs was examined with Circular Dichroism (CD) Spectra (Chirascan, UM, Britain). In addition, the variation of fluorescence emission spectra of PpIX by […]
# transformation of FTP-NPs.
# Pyrene molecules were employed as an indicator to determine the critical aggregation concentration (CAC) of nanoparticles by comparing the fluorescence of their third and first emissive peaks. […] The fluorescence spectra of pyrene (excitation, 335 nm) in different NPs dilutions were recorded. The fluorescence intensity ratio (I3/I1) of the third and first emissive peaks was measured for CAC calculation. […]
# Figure S3. […] (a, b) Changes in fluorescence and UV–vis absorption of FTP-NPs following the gradual addition of water (from 0 to 99.5%) to a solution of NPs in Dimethyl Sulfoxide (DMSO). […]
# Hepa1-6 cells = assay: Transwell migration and Matrigel invasion assay; format: cell-based, mouse
# Experimental: Cell migration and invasion assay […]
# Cell migration was monitored during the overnight culture of the cells. Hepa1-6/luc cells (5×10^5cells/well) were placed in the upper chamber of an 8µm transwell system and incubated in serum-free DMEM, while various treated media with 20% FBS were added to the lower chamber of 24-well plates. After incubation for 48 h, the transmembrane cells were washed, fixed with 4% paraformaldehyde, stained with crystal violet, and observed under a microscope (Axiovert 200, Zeiss, Germany). All the experiments were performed thrice. The Transwell invasion assay was performed using a similar procedure. Hepa1-6/luc cells (1×10^6cells/well) were seeded in the upper chamber of an 8µm transwell system coated with Matrigel (356231, Corning, New York, USA) and incubated in serum-free DMEM. The remaining operations were performed according to the steps of the migration assay. All the experiments were performed thrice.
# Matrigel tube formation assay
# Murine C166 endothelial cells (3×10^4cells/well) were placed on 96-well plates coated with Matrigel (356231, Corning, New York, USA) and incubated with various treatments. […]
# In vitro permeability assays and trans-endothelial invasion assays […]
substance,measurement,setting,value
PpIX-GFFVLK-EAIPMSIPPEVK [FTP-NPs],"zeta potential, initial NPs",[1]; before fibrillar transformation,21.7±0.6 mV
same,zeta potential after fibrillar transformation,[1]; with NE for 24 h,9.2±0.2 mV
same,number of invasive cells,"Hepa1-6 cells; Matrigel-coated transwell, versus Control and NFTP-NPs groups",significantly lower
same,number of migrating cells,"Hepa1-6 cells; transwell, 48 h, versus other control groups",significantly reduced

# — PMC12767106, “In Situ Assembly of Transformable Monopeptide on Activated Neutrophils Attenuates NETs‐Induced Hepatocellular Carcinoma Metastasis by Disrupting NE Nuclear Translocation” (Advanced Science, 2025)
